Test system: 439559-082-T-J2-PDC spheroids viability
Test: Anticancer human tumor 439559-082-T-J2-PDC patient-derived colon adenocarcinoma cell line growth inhibition [GQUAD]
Details: for IC50: curve of first compound; for viability, T/C: stronger effect = lower value
Procedure, shortened: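 Multi-cell-type spheroids of tumor cells with HUVEC and mesenchymal stem cells, treated with drug combinations. Concentrations descend in half-log steps from near clinical Cmax, or from 10 microM where Cmax is unknown; viability read-out.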

[1] = second compound 0.0316 µM, first compound 0.0316 µM
[2] = second compound 0.0316 µM, first compound 0.1 µM
[3] = second compound 0.0316 µM, first compound 0.316 µM
[4] = second compound 0.0316 µM, first compound 1 µM
[5] = second compound 0.0316 µM, first compound 3.16 µM
[6] = second compound 0.0316 µM, first compound 10 µM
[7] = second compound 0.1 µM, first compound 0.0316 µM
[8] = second compound 0.1 µM, first compound 0.1 µM
[9] = second compound 0.1 µM, first compound 0.316 µM
[10] = second compound 0.1 µM, first compound 1 µM
[11] = second compound 0.1 µM, first compound 3.16 µM
[12] = second compound 0.1 µM, first compound 10 µM
[13] = second compound 0.316 µM, first compound 0.0316 µM
[14] = second compound 0.316 µM, first compound 0.1 µM
[15] = second compound 0.316 µM, first compound 0.316 µM
[16] = second compound 0.316 µM, first compound 1 µM
[17] = second compound 0.316 µM, first compound 3.16 µM
[18] = second compound 0.316 µM, first compound 10 µM
[19] = second compound 1 µM, first compound 0.0316 µM
[20] = second compound 1 µM, first compound 0.1 µM
[21] = second compound 1 µM, first compound 0.316 µM
[22] = second compound 1 µM, first compound 1 µM
[23] = second compound 1 µM, first compound 3.16 µM
[24] = second compound 1 µM, first compound 10 µM
[25] = second compound 3.16 µM, first compound 0.0316 µM
[26] = second compound 3.16 µM, first compound 0.1 µM
[27] = second compound 3.16 µM, first compound 0.316 µM
[28] = second compound 3.16 µM, first compound 1 µM
[29] = second compound 3.16 µM, first compound 3.16 µM
[30] = second compound 3.16 µM, first compound 10 µM
[31] = second compound 10 µM, first compound 0.0316 µM
[32] = second compound 10 µM, first compound 0.1 µM
[33] = second compound 10 µM, first compound 0.316 µM
[34] = second compound 10 µM, first compound 1 µM
[35] = second compound 10 µM, first compound 3.16 µM
[36] = second compound 10 µM, first compound 10 µM
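Also: spheroids exposed to the agents for 7 days before readout.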
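For viability, T/C in this document: percent of luminescence signal in DMSO vehicle wells taken as 100% viability.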

COc1ncnc(C2CC2)c1-c1ncc2cnn(Cc3ccc(-c4nc(C(F)(F)F)cn4C(C)C)cc3)c2n1 + Cc1[nH]c2ccc(F)cc2c1-c1nc2c3cccnc3c3ncccc3c2[nH]1
IC50 (second compound 0.0316 µM): > 10000 nM | IC50 (second compound 0.1 µM): > 10000 nM | IC50 (second compound 0.316 µM): > 10000 nM | IC50 (second compound 1 µM): > 10000 nM | IC50 (second compound 3.16 µM): > 10000 nM | IC50 (second compound 10 µM): > 10000 nM | viability, T/C [1]: 102% | viability, T/C [2]: 86.8% | viability, T/C [3]: 97.2% | viability, T/C [4]: 90.3% | viability, T/C [5]: 81.5% | viability, T/C [6]: 58% | viability, T/C [7]: 112% | viability, T/C [8]: 94.8% | viability, T/C [9]: 97.6% | viability, T/C [10]: 93.8% | viability, T/C [11]: 84.6% | viability, T/C [12]: 63.6% | viability, T/C [13]: 103% | viability, T/C [14]: 104% | viability, T/C [15]: 103% | viability, T/C [16]: 90.6% | viability, T/C [17]: 83.7% | viability, T/C [18]: 72.5% | viability, T/C [19]: 99.8% | viability, T/C [20]: 92% | viability, T/C [21]: 91.9% | viability, T/C [22]: 92.5% | viability, T/C [23]: 77.8% | viability, T/C [24]: 60.4% | viability, T/C [25]: 97.3% | viability, T/C [26]: 95.3% | viability, T/C [27]: 93.2% | viability, T/C [28]: 78.2% | viability, T/C [29]: 82.5% | viability, T/C [30]: 50.6% | viability, T/C [31]: 80.8% | viability, T/C [32]: 62.9% | viability, T/C [33]: 92.6% | viability, T/C [34]: 81.7% | viability, T/C [35]: 84.8% | viability, T/C [36]: 60.7%

CC1COCCN1c1cc(-c2ccnn2C)c2ccnc(-c3ccn[nH]3)c2n1 (stereo not drawn) + Cc1cnc(CNC(=O)c2c(=O)c3ccc(N4CCCN(C)CC4)nc3n3c2sc2ccccc23)cn1
IC50 (second compound 0.0316 µM): 176 nM | IC50 (second compound 0.1 µM): 123 nM | IC50 (second compound 0.316 µM): 80.9 nM | IC50 (second compound 1 µM): 71.5 nM | IC50 (second compound 3.16 µM): 46.8 nM | IC50 (second compound 10 µM): 37.3 nM | viability, T/C [1]: 85.7% | viability, T/C [2]: 62.4% | viability, T/C [3]: 37.3% | viability, T/C [4]: 31.8% | viability, T/C [5]: 33.6% | viability, T/C [6]: 30% | viability, T/C [7]: 91.6% | viability, T/C [8]: 53% | viability, T/C [9]: 36.4% | viability, T/C [10]: 27.6% | viability, T/C [11]: 40% | viability, T/C [12]: 28.1% | viability, T/C [13]: 74.4% | viability, T/C [14]: 43.8% | viability, T/C [15]: 33.9% | viability, T/C [16]: 34.1% | viability, T/C [17]: 32.9% | viability, T/C [18]: 24.4% | viability, T/C [19]: 66.3% | viability, T/C [20]: 43.4% | viability, T/C [21]: 33.2% | viability, T/C [22]: 30% | viability, T/C [23]: 32% | viability, T/C [24]: 26.1% | viability, T/C [25]: 57.6% | viability, T/C [26]: 33.4% | viability, T/C [27]: 31.4% | viability, T/C [28]: 31.6% | viability, T/C [29]: 27.4% | viability, T/C [30]: 19.9% | viability, T/C [31]: 52.9% | viability, T/C [32]: 35% | viability, T/C [33]: 32.5% | viability, T/C [34]: 25.9% | viability, T/C [35]: 27.3% | viability, T/C [36]: 20.3%

CC1COCCN1c1cc(C2(O)CC3CCC(C2)O3)c2cnn(-c3ccn[nH]3)c2n1 (stereo not drawn) + Cc1cnc(CNC(=O)c2c(=O)c3ccc(N4CCCN(C)CC4)nc3n3c2sc2ccccc23)cn1
IC50 (second compound 0.0316 µM): 901 nM | IC50 (second compound 0.1 µM): 591 nM | IC50 (second compound 0.316 µM): 364 nM | IC50 (second compound 1 µM): 342 nM | IC50 (second compound 3.16 µM): 275 nM | IC50 (second compound 10 µM): 136 nM | viability, T/C [1]: 84.9% | viability, T/C [2]: 85.1% | viability, T/C [3]: 66.8% | viability, T/C [4]: 47.8% | viability, T/C [5]: 38.4% | viability, T/C [6]: 30.4% | viability, T/C [7]: 84.4% | viability, T/C [8]: 77.6% | viability, T/C [9]: 57.6% | viability, T/C [10]: 43.8% | viability, T/C [11]: 34.6% | viability, T/C [12]: 33.2% | viability, T/C [13]: 82.5% | viability, T/C [14]: 68.7% | viability, T/C [15]: 54.3% | viability, T/C [16]: 34.3% | viability, T/C [17]: 37.9% | viability, T/C [18]: 31.3% | viability, T/C [19]: 71.4% | viability, T/C [20]: 68.2% | viability, T/C [21]: 49.6% | viability, T/C [22]: 36.5% | viability, T/C [23]: 28.8% | viability, T/C [24]: 26.6% | viability, T/C [25]: 65.5% | viability, T/C [26]: 57.8% | viability, T/C [27]: 49.9% | viability, T/C [28]: 34.6% | viability, T/C [29]: 25.2% | viability, T/C [30]: 27.3% | viability, T/C [31]: 65.6% | viability, T/C [32]: 50.5% | viability, T/C [33]: 44.5% | viability, T/C [34]: 32.8% | viability, T/C [35]: 27.6% | viability, T/C [36]: 21.2%

CC1COCCN1c1cc(C2(S(C)(=N)=O)CC2)nc(-c2ccnc3[nH]ccc23)n1 (stereo not drawn) + Cc1cnc(CNC(=O)c2c(=O)c3ccc(N4CCCN(C)CC4)nc3n3c2sc2ccccc23)cn1
IC50 (second compound 0.0316 µM): > 10000 nM | IC50 (second compound 0.1 µM): > 10000 nM | IC50 (second compound 0.316 µM): > 10000 nM | IC50 (second compound 1 µM): > 10000 nM | IC50 (second compound 3.16 µM): > 10000 nM | IC50 (second compound 10 µM): > 10000 nM | viability, T/C [1]: 99.5% | viability, T/C [2]: 86.3% | viability, T/C [3]: 93.8% | viability, T/C [4]: 89.6% | viability, T/C [5]: 90.9% | viability, T/C [6]: 69.9% | viability, T/C [7]: 100% | viability, T/C [8]: 94.4% | viability, T/C [9]: 86.4% | viability, T/C [10]: 85.5% | viability, T/C [11]: 86.5% | viability, T/C [12]: 61.8% | viability, T/C [13]: 80.3% | viability, T/C [14]: 78.3% | viability, T/C [15]: 80.8% | viability, T/C [16]: 81.5% | viability, T/C [17]: 79.1% | viability, T/C [18]: 60.9% | viability, T/C [19]: 76.1% | viability, T/C [20]: 65.2% | viability, T/C [21]: 78.2% | viability, T/C [22]: 75.5% | viability, T/C [23]: 75.8% | viability, T/C [24]: 65.6% | viability, T/C [25]: 62% | viability, T/C [26]: 74.5% | viability, T/C [27]: 66.4% | viability, T/C [28]: 71.3% | viability, T/C [29]: 75.3% | viability, T/C [30]: 55.7% | viability, T/C [31]: 61.3% | viability, T/C [32]: 59.1% | viability, T/C [33]: 66.8% | viability, T/C [34]: 60.8% | viability, T/C [35]: 61.6% | viability, T/C [36]: 49.2%
